Reference: patent US9504751B2, “Stable pharmaceutical composition” (EVERFRONT BIOTECH INC., priority 2014, dated 2016)
Values after ≈ are worked out from the molar mass of the structure shown.

Columns and labels:
[1] = Room-temperature stability test: appearance of the composition; type: physicochemical; conditions: PBS
Method: The stability study of the pharmaceutical composition was performed by: (1) observing the appearance of the pharmaceutical composition after storage at room temperature for 3 or 7 days, and classifying the results into “V” (if the pharmaceutical composition remained homogeneous) and “X” (if the pharmaceutical composition separated into two layers or had precipitation) to evaluate the appearance stability; and (2) analyzing the purity of n-butylidenephthalide by measuring the impurities in the pharmaceutical composition through relative retention time (RRT) using a LCMS instrument with the following conditions.

[2] = Droplet size, electrical conductivity and zeta potential analyses; type: physicochemical; conditions: sample with n-butylidenephthalide 200 μg/mL
Method: The pharmaceutical composition was formulated to provide a sample in which the concentration of n-butylidenephthalide is 200 μg/mL. The droplet size, electrical conductivity and zeta potential of the sample were analyzed using a high concentration nano-droplet size and zeta potential meter (Malvern Nano-ZS ZEN-3600).

[3] = Viscosity analysis (AR2000 rheometer); type: physicochemical
Method: The viscosity analysis was performed by measuring the relationship of viscosity of a sample to shear rate and rheological property of the sample using AR2000 rheometer (stress control) (from TA Instruments; measuring mold: cone and plate; amount of sample: 1 mL).

[4] = tested on: GBM 8401 cells; assay: Cytotoxicity test (IC50 value), MTT cell survival assay; type: cell-based; conditions: Homo sapiens, 24 hours
Method: GBM 8401 cells (i.e., a human brain glioblastoma multiforme cell line) were cultured in a 96-well culture plate with a cell number of 6×10^3 per well, and treated with pure n-butylidenephthalide (BP) or one of the pharmaceutical compositions for 24 hours. The treatment concentrations of active ingredient, n-butylidenephthalide (BP), were 0 μg/mL (i.e., control group), 12.5 μg/mL, 25 μg/mL, 50 μg/mL, 100 μg/mL and 200 μg/mL, respectively. Then, the half maximal inhibitory concentration (IC50) of each pharmaceutical composition to GBM 8401 cells was analyzed by MTT (3-(4,5-cimethylthiazol-2-yl)-2,5-diphenyl tetrazolium bromide) cell survival assay, to evaluate the cytotoxic effect.

[5] = In vitro artificial cellulose membrane test (Franz diffusion device); type: in vitro ADME; conditions: 37° C., 10 hours
Method: A Franz diffusion device (SUNMEI instruments Co., Ltd, Taiwan) shown in FIG. 5 was used to estimate the ability of pure n-butylidenephthalide (BP) liquid and the pharmaceutical compositions to permeate trough the artificial cellulose membrane, to simulate their permeation through a nasal mucosa. The superficial area of diffusion of the device is about 4.5 cm^2, and the capacity volume of receptor chamber of the device is about 23 mL. […]

[6] = In vitro cell line permeation test; type: in vitro ADME, human; conditions: human, RPMI 2650 cellular monolayer, 37° C., read-out: Peff ± SD
Method: (§1) [formula] V: Capacity of receptor chamber (mL) C0: Initial supplied concentration of drug (μg/mL) Peff: Permeability coefficient (cm/s) J: Flux (μg/cm^2·s) A: Superficial area of diffusion (cm^2)
(§2) [formula] Change of the concentration along with time under a stable status (μg/mLs)
(§3) RPMI 2650 cells (i.e., a human nasal septum squamous cell line) were seeded in a collagen-coated cell insert with 0.4 μm pore size and cultured for 2 days to lead the cells to form a cellular monolayer on the insert. The cell insert was then transferred into a 12-well plate with 1.5 mL of Hepes buffer inside. 0.5 mL of Hepes buffer containing pure n-butylidenephthalide or the pharmaceutical composition was added into the 12-well plate. Next, the 12-well plate was placed into an incubator (37° C., 5% CO2) and incubated. The buffer in each well of the 12-well plate was collected every 1 hour (6 hours in total), and the absorption spectrum of the sampled buffer was detected by a spectrophotometer at […] wavelength to calculate the concentration of n-butylidenephthalide or the pharmaceutical composition. The permeability coefficient (Peff) and flux (J) were calculated by using the above Formula 1 and Formula 2.

[7] = tested on: RPMI 2650 cells; assay: In vitro cell line permeation test; type: in vitro ADME, human; conditions: RPMI 2650 cellular monolayer, 37° C., 6 hours
Method: as §1, §2, §3

[8] = tested on: 9 L (rat brain gliosarcoma cell line) tumor tissue; assay: Intranasal treatment of rats with intracranially transplanted 9 L tumor; type: in vivo
Method: 9 L (i.e., a rat brain gliosarcoma cell line) tumor tissue was intracranially transplanted into rats. The test of drug treatment was conducted after the intracranial tumor formed. The test method includes: (i) using 400 mg/kg of chloral hydrate (Sigma-Aldrich Company Ltd.) to anesthetize the rats, shaving the hair on the head of rats after the rats were in a coma, and fixing the rats in a stereotaxic instrument (Lab Standard™ Stereotaxic Instrument); (ii) scissoring the scalp by shears to expose the cranium, setting the bregma as a center, and drilling a 5 mm hole at the positioned drilling site 3 mm right to and 5 mm below the bregma on the cranium by a drill; (iii) clamping the prepared 9 L tumor tissue (1×1×1 mm^3) by a forceps and transplanting it into 3 mm depths within the brain, and then, resting for 1 minute to coagulate the blood, removing the forceps, and coating the bone wax on the hole, lastly, suturing the scalp of rats and administering the rats with antibiotics; (iv) 7 days after the transplantation of tumor tissue, randomly grouping the rats as the following Table 11, and then, sucking a drug (n-butylidenephthalide (BP) or pharmaceutical composition 5) by a pipette and dropping the drug into the nasal cavity of the rats to conduct an intranasal administration, and repeating the administration for 30 days and recording the body weight of rats and the number of dead rats during this medical treatment; and (v) removing the tumor, and then, measuring the length-breadth of tumor by an electronic vernier caliper and calculating the total volume of tumor by using the following Formula 3, measuring the weight of tumor at the same time, and drawing the obtained values into a bar diagram and a curve diagram, to determine the therapeutic effect.

[9] = Solubility of n-butylidenephthalide in solvents; type: physicochemical; conditions: organic solvent or mixture

CCCC=C1OC(=O)c2ccccc21 [Pure BP, n-butylidenephthalide]
Amount stable in the medium system ([1]; polyethoxylated castor oil, and ethanol with polypropylene glycol): up to 208 mg/mL | Amount stable in the medium system ([1]; polyethoxylated castor oil, and polyethylene glycol with dimethyl sulfoxide or with ethanol (Examples 1, 5 and 6)): up to 1000 mg/mL | Electrical conductivity [2]: 0.02 mS/cm | Zeta potential [2]: 0.38 mV | Average viscosity ± SD ([3]; cone and plate, 1 mL sample): 1.57 ± 0.01 ×10^−2 Pa · s | Rheological property (Newtonian or non-Newtonian fluid) ([3]; viscosity versus shear rate): Newtonian fluids | IC50 [4]: 70 µg/mL (≈ 0.372 mM) | Flux ± SD [5]: 2.29 ± 0.23 10^−3 μg/cm^2 · s | Peff ± SD [5]: 0.76 ± 0.08 10^−6 cm/s | Papp at 6 h [6]: 1.59 ± 0.09 ×10⁻⁶ cm/s | Flux ± SD [7]: 0.32 ± 0.02 10^−3 μg/cm^2 · s | Growth of tumor ([8]; 160 mg/kg or 320 mg/kg, compared to control group): effective in inhibiting the growth of tumor | Survival rate ([8]; 160 mg/kg, 30 days): significantly increased and similar survival rates | Volume and weight of tumor ([8]; 160 mg/kg, 30 days): significantly reduced and similar volume and weight of tumor | solubility ([9]; in ethanol): > 222 mg/mL | solubility ([9]; in polyethylene glycol 400, polyethylene glycol 300 or polypropylene glycol): 70 to 120 mg/mL (≈ 372 to 638 mM)
